This data set concerns rodent carcinogenicity bioassays, tumor incidence. In words: CCRIS carcinogenicity studies. The following applies: Dose: 0, Dose: 0. The source says:
The CCRIS database contains chemical records with carcinogenicity, mutagenicity, tumor promotion, and tumor inhibition test results. It was developed by the National Cancer Institute (NCI). Data are derived from studies cited in primary journals, current awareness tools, NCI reports, and other sources. Test results have been reviewed by experts in carcinogenesis and mutagenesis.
CCRIS provides historical information from the years 1985 - 2011. It is no longer updated.
This is an archive assay for CCRIS carcinogenicity studies.

These results are taken from PubChem BioAssay AID1259411 (Chemical Carcinogenesis Research Information System (CCRIS), 2018).

SMILES strings stand for the structures. Active and inactive are the calls of the source. The rule behind the calls is not given here.

On to `C=CC`, for which the carcinogen call reads like this: (Species: MOUSE, Strain/Sex: B6C3F1/FEMALE, Route: INHALATION, 5000, 10000 PPM IN AIR 6H/D 5D/WK FOR 103 WK (STUDY DURATION: 104 WK), 5000, 10000 PPM IN AIR 6H/D 5D/WK FOR 103 WK (STUDY DURATION: 104 WK)) “inactive; negative”; (Species: MOUSE, Strain/Sex: B6C3F1/MALE, Route: INHALATION, 5000, 10000 PPM IN AIR 6H/D 5D/WK FOR 103 WK (STUDY DURATION: 104 WK), 5000, 10000 PPM IN AIR 6H/D 5D/WK FOR 103 WK (STUDY DURATION: 104 WK)) “inactive; negative”; (Species: MOUSE, Strain/Sex: SWISS/FEMALE, Route: INHALATION, 200, 1000, 5000 PPM 7 HR/D, 5D/WK FOR 78 WK (STUDY DURATION: LIFESPAN), 200, 1000, 5000 PPM 7 HR/D, 5D/WK FOR 78 WK (STUDY DURATION: LIFESPAN)) “inactive; negative”; (Species: MOUSE, Strain/Sex: SWISS/MALE, Route: INHALATION, 200, 1000, 5000 PPM 7 HR/D, 5D/WK FOR 78 WK (STUDY DURATION: LIFESPAN), 200, 1000, 5000 PPM 7 HR/D, 5D/WK FOR 78 WK (STUDY DURATION: LIFESPAN)) “inactive; negative”; (Species: RAT, Strain/Sex: F344/FEMALE, Route: INHALATION, 5000, 10000 PPM IN AIR 6H/D 5D/WK FOR 103 WK (STUDY DURATION: 104 WK), 5000, 10000 PPM IN AIR 6H/D 5D/WK FOR 103 WK (STUDY DURATION: 104 WK)) “inactive; negative”; (Species: RAT, Strain/Sex: F344/MALE, Route: INHALATION, 5000, 10000 PPM IN AIR 6H/D 5D/WK FOR 103 WK (STUDY DURATION: 104 WK), 5000, 10000 PPM IN AIR 6H/D 5D/WK FOR 103 WK (STUDY DURATION: 104 WK)) “inactive; negative”. Also, the carcinogen call was “inactive; negative” (Species: RAT, Strain/Sex: SPRAGUE-DAWLEY/FEMALE, Route: INHALATION, 200, 1000, 5000 PPM 7 HR/D, 5D/WK FOR 104 WK (STUDY DURATION: LIFESPAN), 200, 1000, 5000 PPM 7 HR/D, 5D/WK FOR 104 WK (STUDY DURATION: LIFESPAN)); “inactive; negative” (Species: RAT, Strain/Sex: SPRAGUE-DAWLEY/FEMALE, Route: INHALATION, 200, 1000, 5000 PPM IN AIR 7 HR/D 5 D/WK FOR 104 WK (STUDY DURATION: LIFETIME), 200, 1000, 5000 PPM IN AIR 7 HR/D 5 D/WK FOR 104 WK (STUDY DURATION: LIFETIME), Tumor Site: Type of Lesion: [BRAIN WAS ONLY SITE EVALUATED]); “inactive; negative” (Species: RAT, Strain/Sex: SPRAGUE-DAWLEY/MALE, Route: INHALATION, 200, 1000, 5000 PPM 7 HR/D, 5D/WK FOR 104 WK (STUDY DURATION: LIFESPAN), 200, 1000, 5000 PPM 7 HR/D, 5D/WK FOR 104 WK (STUDY DURATION: LIFESPAN)); “inactive; negative” (Species: RAT, Strain/Sex: SPRAGUE-DAWLEY/MALE, Route: INHALATION, 200, 1000, 5000 PPM IN AIR 7 HR/D 5 D/WK FOR 104 WK (STUDY DURATION: LIFETIME), 200, 1000, 5000 PPM IN AIR 7 HR/D 5 D/WK FOR 104 WK (STUDY DURATION: LIFETIME), Tumor Site: Type of Lesion: [BRAIN WAS ONLY SITE EVALUATED]).
Take `C=C1C[C@@]23CC[C@H]4[C@@](C)(CCC[C@@]4(C)C(=O)O[C@@H]4O[C@H](CO)[C@@H](O)[C@H](O)[C@H]4O)[C@@H]2CC[C@]1(O[C@@H]1O[C@H](CO)[C@@H](O)[C@H](O)[C@H]1O[C@@H]1O[C@H](CO)[C@@H](O)[C@H](O)[C@H]1O)C3`: the carcinogen call reads like this: (Species: RAT, Strain/Sex: F344/FEMALE, Route: ORAL, 2.5, 5% IN DIET FOR 104 WK (STUDY DURATION: 108 WK), 2.5, 5% IN DIET FOR 104 WK (STUDY DURATION: 108 WK)) “inactive; negative”; (Species: RAT, Strain/Sex: F344/MALE, Route: ORAL, 2.5, 5% IN DIET FOR 104 WK (STUDY DURATION: 108 WK), 2.5, 5% IN DIET FOR 104 WK (STUDY DURATION: 108 WK)) “inactive; negative”; (Species: RAT, Strain/Sex: WISTAR/FEMALE, Route: ORAL, 0.2, 0.6%, 1.2% IN DIET FOR 24 MO (STUDY DURATION: 24 MO), 0.2, 0.6%, 1.2% IN DIET FOR 24 MO (STUDY DURATION: 24 MO)) “inactive; negative”; (Species: RAT, Strain/Sex: WISTAR/MALE, Route: ORAL, 0.2, 0.6, 1.2% IN DIET FOR 24 MO (STUDY DURATION: 24 MO), 0.2, 0.6, 1.2% IN DIET FOR 24 MO (STUDY DURATION: 24 MO)) “inactive; negative”.
Take `C[C@]12CC[C@H](O)CC1=CC[C@@H]1[C@@H]2CC[C@]2(C)C(=O)CC[C@@H]12`: the carcinogen call reads like this: (Species: FISH, Strain/Sex: RAINBOW TROUT/MALE, FEMALE, Route: ORAL, 55, 111, 222, 444, 888 PPM IN DIET 1/D 5 D/WK FOR 42 WK (STUDY DURATION: 42 WK), 55, 111, 222, 444, 888 PPM IN DIET 1/D 5 D/WK FOR 42 WK (STUDY DURATION: 42 WK), Tumor Site: Type of Lesion: LIVER: TUMOR) “active; positive”; (Species: FISH, Strain/Sex: RAINBOW TROUT/MALE,FEMALE, Route: ORAL, 55, 111, 222, 444, 888 PPM IN DIET FOR 7 MO (STUDY DURATION: 10 MO), 55, 111, 222, 444, 888 PPM IN DIET FOR 7 MO (STUDY DURATION: 10 MO), Tumor Site: Type of Lesion: LIVER: TUMOR) “active; positive”; (Species: RAT, Strain/Sex: F344/MALE, Route: ORAL, 0.45% (WEIGHT/WEIGHT) IN SEMIPURIFIED DIET OIL STRIPPED OF VITAMIN E FOR STUDY DURATION, (STUDY DURATION: 84 WK), 0.45% (WEIGHT/WEIGHT) IN SEMIPURIFIED DIET OIL STRIPPED OF VITAMIN E FOR STUDY DURATION, (STUDY DURATION: 84 WK), Tumor Site: Type of Lesion: LIVER: HEPATOCELLULAR CARCINOMA) “active; positive”; (Species: RAT, Strain/Sex: F344/MALE, Route: ORAL, 0.5, 1% IN DIET FOR 78 WK (STUDY DURATION: 78 WK), 0.5, 1% IN DIET FOR 78 WK (STUDY DURATION: 78 WK), Tumor Site: Type of Lesion: LIVER: NEOPLASM) “active; positive”.
